From patent US9090632B2, “Bicyclic oxazole and thiazole compounds and their use as allosteric modulators of mGluR5 receptors” (Vanderbilt University, priority 2010, dated 2015)

Biological target: human mGluR5 (Homo sapiens, UniProt P41594)
Experiment: Cell-based functional Ca2+ mobilization assay, potentiation of glutamate EC20 response (H10H cell-line)
Settings: H10H cell-line expressing recombinant human mGluR5; for Emax / Emax (%): in presence of glutamate EC20, normalized to maximal glutamate response; for EC50 / pEC50: potentiation in presence of glutamate EC20
Procedure: Human embryonic kidney (HEK) cells transfected with rat mGluR5 were plated in clear bottom assay plates for assay in a Functional Drug Screening System (FDSS). In the alternative assay, HEK cells transfected with human mGluR5 were plated for assay in the FDSS. In some cases the HEK cells transfected with human mGluR5 are the H10H cell line. Alternatively, the HEK cells transfected with human mGluR5 are the H12H cell line. […] The cells were loaded with a Ca^2+-sensitive fluorescent dye (e.g., Fluo-4), and the plates were washed and placed in the FDSS instrument. After establishment of a fluorescence baseline for about three seconds, the compounds of the present invention were added to the cells, and the response in cells was measured. Five minutes later, an mGluR5 agonist (e.g., glutamate, 3,5-dihydroxyphenylglycine, or quisqualate) was added to the cells, and the response of the cells was measured. Potentiation of the agonist response of mGluR5 by the compounds in the present invention was observed as an increase in response to non-maximal concentrations of agonist (here, glutamate) in the presence of compound compared to the response to agonist in the absence of compound.
The above described assay can be operated in two modes. In the first mode, a range of concentrations of the present compounds were added to cells, followed by a single fixed concentration of agonist. If a compound acted as a potentiator, an EC50 value for potentiation and a maximum extent of potentiation by the compound at this concentration of agonist was determined by non-linear curve fitting. In the second mode, several fixed concentrations of the present compounds were added to various wells on a plate, followed by a range of concentrations of agonist for each concentration of present compound; the EC50 values for the agonist at each concentration of compound were determined by non-linear curve fitting. A decrease in the EC50 value of the agonist with increasing concentrations of the present compounds (a leftward shift of the agonist concentration-response curve) is an indication of the degree of mGluR5 potentiation at a given concentration of the present compound. An increase in the EC50 value of the agonist with increasing concentrations of the present compounds (a rightward shift of the agonist concentration-response curve) is an indication of the degree of mGluR5 antagonism at a given concentration of the present compound. The second mode also indicates whether the present compounds also affect the maximum response to mGluR5 to agonists.
Human mGluR5a cDNA in pCMV6-XL6 mammalian expression plasmid was purchased from OriGene Technologies, Inc. (catalogue number SC326357) and subcloned into pcDNA3.1(−). Human embryonic kidney (HEK) 293A cells were then transfected with human mGluR5a pcDNA3.1(−) using LipofectAmine 2000 (Invitrogen) and monoclones were selected and tested for functional response using a Ca^2+ mobilization assay. Monoclones were named for the species (“H” for human) plus the location on the plate (e.g. “10H”).
HEK cells transfected with the human mGluR5a receptor were plated at 15,000 cells/well in clear-bottomed poly-D-lysine-coated assay plates (BD Falcon) in glutamate-glutamine-free growth medium and incubated overnight at 37° C. and 5% CO2. The cell-line used to obtain the data reported herein was the H10H cell-line expressing the human mGluR5 receptor. Although the H10H cell-line was used to obtain the data shown herein, the H12H cell-line expressing the human mGluR5 receptor can also be used in these assays. The following day, the growth medium was removed and the cells were washed with assay buffer containing 1× Hank's balanced salt solution (Invitrogen, Carlsbad, Calif.), 20 mM HEPES, 2.5 mM probenecid, pH 7.4 and left with 20 μL of this reagent. Following this step, the cells were loaded with calcium indicator dye, fluo-4 AM, to a final concentration of 2 μM and incubated for 40-45 min at 37° C. […]

Sequence of human mGluR5 (P41594 21-1180 isoform P41594-2 limits assumed): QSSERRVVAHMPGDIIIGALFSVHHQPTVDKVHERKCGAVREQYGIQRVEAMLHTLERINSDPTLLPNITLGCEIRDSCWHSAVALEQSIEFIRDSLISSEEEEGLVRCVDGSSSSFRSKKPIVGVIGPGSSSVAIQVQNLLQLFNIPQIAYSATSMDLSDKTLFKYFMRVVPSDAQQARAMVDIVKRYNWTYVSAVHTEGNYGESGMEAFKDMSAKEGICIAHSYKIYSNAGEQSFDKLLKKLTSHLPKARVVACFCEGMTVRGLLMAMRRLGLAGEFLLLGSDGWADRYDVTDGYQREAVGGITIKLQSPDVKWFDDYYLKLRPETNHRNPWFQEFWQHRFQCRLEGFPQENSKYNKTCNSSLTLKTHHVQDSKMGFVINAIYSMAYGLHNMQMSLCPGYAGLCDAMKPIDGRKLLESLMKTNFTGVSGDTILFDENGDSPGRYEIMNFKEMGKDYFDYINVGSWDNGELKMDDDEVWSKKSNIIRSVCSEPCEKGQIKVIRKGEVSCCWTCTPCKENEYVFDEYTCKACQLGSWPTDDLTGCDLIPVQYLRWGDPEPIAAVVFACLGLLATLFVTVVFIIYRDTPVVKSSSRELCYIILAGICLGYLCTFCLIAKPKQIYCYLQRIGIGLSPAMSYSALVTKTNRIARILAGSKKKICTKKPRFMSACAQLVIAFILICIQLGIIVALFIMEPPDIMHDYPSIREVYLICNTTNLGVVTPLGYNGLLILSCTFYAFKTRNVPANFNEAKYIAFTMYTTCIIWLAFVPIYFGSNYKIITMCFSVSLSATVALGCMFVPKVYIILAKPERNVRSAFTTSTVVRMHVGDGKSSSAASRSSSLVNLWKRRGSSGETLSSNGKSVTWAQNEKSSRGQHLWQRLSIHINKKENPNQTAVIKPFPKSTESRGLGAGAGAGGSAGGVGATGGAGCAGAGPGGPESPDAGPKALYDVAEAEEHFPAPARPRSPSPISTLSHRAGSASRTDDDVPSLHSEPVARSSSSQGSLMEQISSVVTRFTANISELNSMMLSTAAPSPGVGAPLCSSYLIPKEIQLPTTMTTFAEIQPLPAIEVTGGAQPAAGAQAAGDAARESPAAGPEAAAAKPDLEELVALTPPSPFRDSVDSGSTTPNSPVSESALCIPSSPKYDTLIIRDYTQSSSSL

Row | SMILES | Emax [%] | EC50 [nM] | Emax (%) | pEC50
1 | O=C(C1CC1)N1CCc2nc(COc3ccccc3)oc2C1 [Example B32] | 39 | 3020 |  | 
2 | Cc1ccnc(OCc2nc3c(o2)CN(C(=O)c2ccc(F)cc2)CC3)c1 [Example B33, 5-[(4-fluorophenyl)carbonyl]-2-{[(4-methylpyridin-2-yl)oxy]methyl}-4,5,6,7-tetrahydro[1,3]oxazolo[5,4-c]pyridine] | 69 | 2000 |  | 
3 | Cn1c(C(=O)N2CCc3nc(COc4ccccc4)oc3C2)cc2ccccc21 [Example B36, 5-[(1-methyl-1H-indol-2-yl)carbonyl]-2-(phenoxymethyl)-4,5,6,7-tetrahydro[1,3]oxazolo[5,4-c]pyridine] | 56 | 501 |  | 
4 | Cc1ccccc1OCc1nc2c(o1)CN(C(=O)c1ccc(F)cc1)CC2 [Example B37] | 57 | 2400 |  | 
5 | O=C(c1ncc(F)cc1F)N1CCc2nc(COc3ccccc3)oc2C1 [Example B38] | 60 | 4070 |  | 
6 | Cc1ncccc1C(=O)N1CCc2nc(COc3ccccc3)oc2C1 [Example B41] | 50 | 6030 |  | 
7 | Cc1cccnc1C(=O)N1CCc2nc(COc3ccccc3)oc2C1 [Example B42] |  |  | 58 | <5
8 | Cc1cccc(C(=O)N2CCc3nc(COc4ccccc4)oc3C2)n1 [Example B44] |  |  | 64 | 5.7
9 | O=C(c1ccc(F)cn1)N1CCc2nc(COc3cccc(F)c3)oc2C1 [Example B45] |  |  | 66 | 5.51
10 | N#Cc1ccccc1C(=O)N1CCc2nc(COc3ccccc3)oc2C1 [Example B46] | 63 | 1620 |  | 
11 | O=C(c1ncccc1F)N1CCc2nc(COc3ccccc3)oc2C1 [Example B47] | 56 | > 10000 |  | 
12 | O=C(c1ccc(F)cc1)N1CCc2nc(COc3cncc(F)c3)oc2C1 [Example B48] |  |  | 62 | 5.49
13 | N#Cc1cc(F)cc(C(=O)N2CCc3nc(COc4ccccc4)oc3C2)c1 [Example B50] |  |  | 57 | 6.43
14 | O=C(Cc1ccc(F)cc1)N1CCc2nc(COc3ccccc3)oc2C1 [Example B51] |  |  | 61 | 5.92
15 | O=C(c1ccc(S(F)(F)(F)(F)F)cc1)N1CCc2nc(COc3ccccc3)oc2C1 [Example B52] |  |  | 51 | 5.24
16 | N#Cc1cccc(OCc2nc3c(o2)CN(C(=O)c2ccc(F)cc2)CC3)c1 [Example B53] | 66.5 | 1260 |  | 
17 | CC(C)(C)[C@H](N)C(=O)N1CCc2nc(COc3ccccc3)oc2C1 [Example B54] | 24 | 4170 |  | 
18 | CC(C)(C)OCC(=O)N1CCc2nc(COc3ccccc3)oc2C1 [Example B55] | 14 |  |  | 
19 | O=C(c1cn[nH]c1)N1CCc2nc(COc3ccccc3)oc2C1 [Example B56] |  |  | 50 | <5
20 | O=C(c1ccc(Cl)o1)N1CCc2nc(COc3ccccc3)oc2C1 [Example B57] |  |  | 57 | 7.14
21 | O=C(c1ccc[nH]1)N1CCc2nc(COc3ccccc3)oc2C1 [Example B58] | 31 | 603 |  | 
22 | O=C(c1cnco1)N1CCc2nc(COc3ccccc3)oc2C1 [Example B59] | 40.5 | 2950 |  | 
23 | O=C(c1ncco1)N1CCc2nc(COc3ccccc3)oc2C1 [Example B60] | 39.5 | 2000 |  | 
24 | Cc1ccc(C(=O)N2CCc3nc(COc4ccccc4)oc3C2)o1 [Example B61] | 52.5 | 302 |  | 
25 | CC(C)(C#N)C(=O)N1CCc2nc(COc3ccccc3)oc2C1 [Example B62] | 34 | 339 |  | 

Second part, the compound after the results:

Row | Emax [%] | EC50 [nM] | Emax (%) | pEC50 | SMILES
26 | 59 | 813 |  |  | O=C(CCc1ccccc1)N1CCc2nc(COc3ccccc3)oc2C1 [Example B64]
27 | 63 | 1200 |  |  | Cc1cccc(OCc2nc3c(o2)CN(C(=O)c2ccc(F)cc2)CC3)c1 [Example B66]
28 | 71 | 2400 |  |  | O=C(c1ccc(F)cc1)N1CCc2nc(COc3ccccn3)oc2C1 [Example B68]
29 |  |  | 72 | 5.85 | O=C(c1ccc(F)cc1)N1CCc2nc(COc3cccc(Cl)c3)oc2C1 [Example B69]
30 |  |  | 73 | 5.78 | O=C(c1ccc(F)cc1)N1CCc2nc(COc3ccncc3)oc2C1 [Example B73]
31 | 57 | > 10000 |  |  | O=C(c1ncccc1Cl)N1CCc2nc(COc3ccccc3)oc2C1 [Example B74]
32 |  |  | 62 | 6.00 | O=C(N1CCc2nc(COc3ccccc3)oc2C1)C1(c2ccccc2)CC1 [Example B77]
33 | 60 | 1910 |  |  | O=C(COc1ccccc1)N1CCc2nc(COc3ccccc3)oc2C1 [Example B80]
34 | 63 | 1910 |  |  | CC(Oc1ccccc1)C(=O)N1CCc2nc(COc3ccccc3)oc2C1 (centres unmarked) [Example B81]
35 |  |  | 62 | 5.7 | O=C(C1CCc2cc(F)ccc2O1)N1CCc2nc(COc3ccccc3)oc2C1 (centres unmarked) [Example B82]
36 |  |  | 72 | 5.89 | N#Cc1cc(C(=O)N2CCc3nc(COc4ccccc4)oc3C2)ccn1 [Example B87]
37 |  |  | 58 | 5.66 | N#Cc1ccc(C(=O)N2CCc3nc(COc4ccccc4)oc3C2)cc1F [Example B90]
38 |  |  | 59 | 5.63 | O=C(c1ccc2nccnc2c1)N1CCc2nc(COc3ccccc3)oc2C1 [Example B91]
39 |  |  | 52 | 6.73 | N#Cc1cc(F)cc(C(=O)N2CCc3nc(COc4cccc(F)c4)oc3C2)c1 [Example B92]
40 |  |  | 52 | 5.73 | O=C(c1cnc2ccccc2n1)N1CCc2nc(COc3ccccc3)oc2C1 [Example B93]
41 | 60.5 | 245 |  |  | O=C(c1cccc(F)c1)N1CCc2nc(COc3ccc(F)cc3)oc2C1 [Example B100]
42 |  |  | 66 | 6.34 | COc1ccc(C(=O)N2CCc3nc(COc4ccccc4)oc3C2)s1 [Example B102]
43 |  |  | 78 | 6.44 | Cc1ccc(C(=O)N2CCc3nc(COc4ccccc4)oc3C2)n1C [Example B103]
44 | 62 | > 10000 |  |  | COCc1ccc(C(=O)N2CCc3nc(COc4ccccc4)oc3C2)o1 [Example B104]
45 |  |  | 22 | <4.52 | O=C1CCC(C(=O)N2CCc3nc(COc4ccccc4)oc3C2)N1 (centres unmarked) [Example B105]
46 | 61 | 85.1 |  |  | O=C(c1ccc(Br)o1)N1CCc2nc(COc3ccccc3)oc2C1 [Example B106]
47 | 73.5 | 66.1 |  |  | O=C(c1ccc(Cl)s1)N1CCc2nc(COc3ccccc3)oc2C1 [Example B109]
48 |  |  | 57 | 6.70 | Cc1ccc(C(=O)N2CCc3nc(COc4ccccc4)oc3C2)s1 [Example B110]
49 |  |  | 12 | <4.52 | O=C(c1cc2ccccc2[nH]1)N1CCc2nc(COc3ccccc3)oc2C1 [Example B112]
50 |  |  | 45 | 6.58 | Cn1ccc(Cl)c1C(=O)N1CCc2nc(COc3ccccc3)oc2C1 [Example B113]
51 |  |  | 46 | <5 | O=C(c1cc[nH]n1)N1CCc2nc(COc3ccccc3)oc2C1 [Example B115]
